Tests used:
[1] = tested on: ANGIOTENSIN II VASOPRESSOR RESPONSE; assay: AII Challenge: blockade of angiotensin II vasopressor response in conscious SHR; assay type: in vivo, rat (Conscious Male Okamoto-Aoki SHR); settings: SHR n=2, 3 mg/kg i.v.
Text: By administering a compound of this invention to a rat, and then challenging with angiotensin II, a blockage of the vasopressor response is realized.
Conscious Male Okamoto-Aoki SHR, 16-20 weeks old, weighing approximately 330 g are purchased from Charles River Labs (Wilmington, Mass.). Conscious rats are restrained in a supine position with elastic tape. The area at the base of the tail is locally anesthetized by subcutaneous infiltration with 2% procaine. The ventral caudal artery and vein are isolated, and a cannula made of polyethylene (PE) 10-20 tubing (fused together by heat) is passed into the lower abdominal aorta and vena cava, respectively. The cannula is secured, heparinized (1,000 I.U./ml), sealed and the wound is closed. The animals are placed in plastic restraining cages in an upright position. The cannula is attached to a Statham P23Db pressure transducer, and pulsatile blood pressure is recorded to 10-15 minutes with a Gould Brush recorder. (Chan et al., (Drug Development Res., 18:75-94, 1989).
Angiotensin II (human sequence, Sigma Chem. Co., St. Louis, MO) of 0.05 and 0.1 ug/kg i.v. is injected into all rats (predosing response). Then a test compound, vehicle or a known angiotensin II antagonist is administered i.v., i.p. or orally to each set of rats. The two doses of angiotensin II are given to each rat again at 30, 60, 90, 120, 180, 240 and 300 minutes post dosing the compound or vehicle. The vasopressor response of angiotensin II is measured for the increase in systolic blood pressure in mmHg. The percentage of antagonism or blockade of the vasopressor response of angiotensin II by a compound is calculated using the vasopressor response (increase in systolic blood pressure) of angiotensin II of each rat predosing the compound as 100%. A compound is considered active if at 30 mg/kg i.v. it antagonized at least 50% of the response.

[2] = biological target: T1, Angiotensin II Receptor (Bos taurus, UniProt P25104); assay: Receptor Binding Assay: Binding of [^125 I](Sar^1,Ile^8)AngII to beef adrenal cortex membranes; settings: 60 min, room temperature
T1 construct: The brownish tissue forming the adrenal cortex is scraped off and finely minced with scissors before homogenization; from tissue; host or cells: beef adrenal cortex, microsomal membranes (100,000×g pellet); fresh glands from a local slaughter house (Maxwell-Cohen)
T1 sequence (P25104 1-359): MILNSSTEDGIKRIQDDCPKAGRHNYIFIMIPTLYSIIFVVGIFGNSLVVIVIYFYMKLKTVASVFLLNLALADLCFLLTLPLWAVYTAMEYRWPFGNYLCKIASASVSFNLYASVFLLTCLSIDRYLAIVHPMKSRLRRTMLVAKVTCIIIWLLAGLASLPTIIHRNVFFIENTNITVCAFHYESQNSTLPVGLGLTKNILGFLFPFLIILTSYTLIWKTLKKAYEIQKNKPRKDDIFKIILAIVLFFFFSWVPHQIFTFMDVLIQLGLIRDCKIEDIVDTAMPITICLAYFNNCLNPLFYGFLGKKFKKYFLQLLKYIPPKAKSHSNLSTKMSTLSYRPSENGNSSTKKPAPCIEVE
Text: Beef adrenals are obtained from a local slaughter house (Maxwell-Cohen). [^125 […]. 2200 Ci/mmole, is purchased from Dupont (NEN®, Boston, Mass.). All unlabeled AngII analogs, Dimethylsulfoxide (DMSO), nucleotides, bovine serum albumin (BSA) are purchased from Sigma Chemical Co., St. Louis, Mo. U.S.A. […] Approximately sixteen (16) to twenty (20) beef adrenal glands are processed as follows: fresh adrenal glands received on crushed ice are cleaned of fatty tissues and the tough membranes encapsulating the glands are removed and discarded. The brownish tissue forming the adrenal cortex is scraped off and finely minced with scissors before homogenization. Care is taken to avoid contamination with medullary tissue during dissection. The scraped cortices are suspended in twenty volumes of an ice-cold buffer medium consisting of 10 mM Tris.HCl (pH 7.4 at 22° C.) and containing 1.0 mM EDTA and 0.2M sucrose. Unless otherwise indicated, all subsequent operations are done at 4° C. […] The homogenate is centrifuged first at low speed (3,000×g) for 10 minutes. […] This P2 pellet is discarded and the liquid phase is carefully decanted off in clean centrifuge tubes and recentrifuged at high speed (100,000×g) for 60 minutes. The translucent final pellet is harvested and combined in a small volume (20-50.0 ml) of 50.0 mM Tris.HCl buffer, pH 7.2. A 100 ul aliquot is withdrawn and the protein content of the preparation is determined by the Lowry's method (Lowry, O. H., Rosebrough, […]. and Randall, R. J., Protein measurement with Folin phenol reagent. J. Biol. Chem., […], 265-275, 1951). The pelleted membrane is reconstituted in 50.0 mM Tris.HCl buffer containing 0.1 mM of phenylmethylsulfonyl fluoride (PMSF) to give approximately a protein concentration of 2.5 mg per ml of tissue suspension. […] Receptor Binding Assay: […] In competition studies, experimental compounds are diluted in dimethylsulfoxide (DMSO) and added in 20 ul to wells before the introduction of tissue membranes. […] Assays are performed in triplicate. The wells are left undisturbed for 60 minutes at room temperature. Following incubation, all wells are harvested at once with a Brandel® Harvester especially designed for a 96 well plate (Brandel® Biomedical Research & Development Labs. Inc., Gaithersburg, Md., U.S.A.). The filter discs are washed with 10×1.0 ml of cold 0.9% NaCl to remove unbound ligand. Presoaking the filter sheet in 0.1% polyethyleneimine in normal saline (PEI/Saline) greatly reduces the radioactivity retained by the filter blanks. This method is routinely used. The filters are removed from the filter grid and counted in a Parkard® Cobra Gamma Counter for 1 minutes. (Packard Instrument Co., Downers Grove, Ill, U.S.A.). The binding data are analyzed by the non-linear interactive "LUNDON-1" program (LUNDON SOFTWARE Inc., Cleveland, Ohio U.S.A.).

[3] = AII 0.05 mcg/kg IV, 30 min post dose
[4] = AII 0.05 mcg/kg IV, 60 min post dose
[5] = AII 0.05 mcg/kg IV, 90 min post dose
[6] = AII 0.05 mcg/kg IV, 120 min post dose
[7] = AII 0.05 mcg/kg IV, 180 min post dose
[8] = AII 0.05 mcg/kg IV, 240 min post dose
[9] = AII 0.05 mcg/kg IV, 300 min post dose
[10] = AII 0.1 mcg/kg IV, 30 min post dose
[11] = AII 0.1 mcg/kg IV, 60 min post dose
[12] = AII 0.1 mcg/kg IV, 90 min post dose
[13] = AII 0.1 mcg/kg IV, 120 min post dose
[14] = AII 0.1 mcg/kg IV, 180 min post dose
[15] = AII 0.1 mcg/kg IV, 240 min post dose
[16] = AII 0.1 mcg/kg IV, 300 min post dose

CCCCc1nc2ccc(C(O)C3CCCS3(=O)=O)cc2c(=O)n1Cc1ccc(-c2ccccc2-c2nn[nH]n2)cc1 (single isomer, unassigned; isomer 2) [Example 16, 2-Butyl-6-[hydroxy(tetrahydro-2-thienyl)methyl-3-[2'-(1H-tetrazol-5-yl)[1,1'biphenyl]-4-yl]methyl]-4(3H)-quinazolinone S, S-dioxide, isomer 2]
% Inhibition of AII vasopressor response [1, 3]: 72%
Average Change (systolic blood pressure response to AII) [1, 3]: 12.5 mmHg
% Inhibition of AII vasopressor response [1, 4]: 30%
Average Change (systolic blood pressure response to AII) [1, 4]: 31.5 mmHg
% Inhibition of AII vasopressor response [1, 5]: 61%
Average Change (systolic blood pressure response to AII) [1, 5]: 17.5 mmHg
% Inhibition of AII vasopressor response [1, 6]: 71%
Average Change (systolic blood pressure response to AII) [1, 6]: 13 mmHg
% Inhibition of AII vasopressor response [1, 7]: 39%
Average Change (systolic blood pressure response to AII) [1, 7]: 27.5 mmHg
% Inhibition of AII vasopressor response [1, 8]: 39%
Average Change (systolic blood pressure response to AII) [1, 8]: 27.5 mmHg
% Inhibition of AII vasopressor response [1, 9]: 33%
Average Change (systolic blood pressure response to AII) [1, 9]: 30 mmHg
% Inhibition of AII vasopressor response [1, 10]: 43%
Average Change (systolic blood pressure response to AII) [1, 10]: 20 mmHg
% Inhibition of AII vasopressor response [1, 11]: 64%
Average Change (systolic blood pressure response to AII) [1, 11]: 12.5 mmHg
% Inhibition of AII vasopressor response [1, 12]: 36%
Average Change (systolic blood pressure response to AII) [1, 12]: 22.5 mmHg
% Inhibition of AII vasopressor response [1, 13]: 50%
Average Change (systolic blood pressure response to AII) [1, 13]: 17.5 mmHg
% Inhibition of AII vasopressor response [1, 14]: 14%
Average Change (systolic blood pressure response to AII) [1, 14]: 30 mmHg
% Inhibition of AII vasopressor response [1, 15]: 0%
Average Change (systolic blood pressure response to AII) [1, 15]: 35 mmHg
% Inhibition of AII vasopressor response [1, 16]: -21%
Average Change (systolic blood pressure response to AII) [1, 16]: 42.5 mmHg
IC50 [2]: 110 nM

CCCCc1nc2ccc(C(C)(O)C3CCN(C)C3=O)cc2c(=O)n1Cc1ccc(-c2ccccc2-c2nn[nH]n2)cc1 (single isomer, unassigned; isomer 1) [Example 47, 2-Butyl-6-1-hydroxy-1-(1-methyl-2-oxo-3-pyrrolidinyl)ethyl]-3-[[2'-[1H(tetrazol-5yl)-[1,1'-biphenyl]-4-yl]methyl-4(3H)-quinazolinone isomer 1]
% Inhibition of AII vasopressor response [1, 3]: 75%
Average Change (systolic blood pressure response to AII) [1, 3]: 10 mmHg
% Inhibition of AII vasopressor response [1, 4]: 75%
Average Change (systolic blood pressure response to AII) [1, 4]: 10 mmHg
% Inhibition of AII vasopressor response [1, 5]: 63%
Average Change (systolic blood pressure response to AII) [1, 5]: 15 mmHg
% Inhibition of AII vasopressor response [1, 6]: 69%
Average Change (systolic blood pressure response to AII) [1, 6]: 12.5 mmHg
% Inhibition of AII vasopressor response [1, 7]: 75%
Average Change (systolic blood pressure response to AII) [1, 7]: 10 mmHg
% Inhibition of AII vasopressor response [1, 8]: 38%
Average Change (systolic blood pressure response to AII) [1, 8]: 25 mmHg
% Inhibition of AII vasopressor response [1, 9]: 29%
Average Change (systolic blood pressure response to AII) [1, 9]: 28.5 mmHg
% Inhibition of AII vasopressor response [1, 10]: 73%
Average Change (systolic blood pressure response to AII) [1, 10]: 11.5 mmHg
% Inhibition of AII vasopressor response [1, 11]: 65%
Average Change (systolic blood pressure response to AII) [1, 11]: 15 mmHg
% Inhibition of AII vasopressor response [1, 12]: 76%
Average Change (systolic blood pressure response to AII) [1, 12]: 10 mmHg
% Inhibition of AII vasopressor response [1, 13]: 82%
Average Change (systolic blood pressure response to AII) [1, 13]: 7.5 mmHg
% Inhibition of AII vasopressor response [1, 14]: 59%
Average Change (systolic blood pressure response to AII) [1, 14]: 17.5 mmHg
% Inhibition of AII vasopressor response [1, 15]: 29%
Average Change (systolic blood pressure response to AII) [1, 15]: 30 mmHg
% Inhibition of AII vasopressor response [1, 16]: 18%
Average Change (systolic blood pressure response to AII) [1, 16]: 35 mmHg
IC50 [2]: 40 nM

From patent publication US5288720A, “Angiotensin II receptor blocking 2,3,6 substituted quinazolinones” (American Cyanamid Company, priority 1993, dated 1994)
